Results published in US8992444B2, “Devices, systems, and methods for determining isometric and isotonic activity of luminal organs” (DTherapeutics, LLC, priority 2005, dated 2015).

Legend:
[1] = test system: aorta, femoral artery, and mesenteric artery; assay: isovolumic myography, dose-dependent vasoconstriction and vasodilatation; set-up: species or system Wistar male rats; details: 10^−5 mole/l; three types of arteries at physiological pressure
Method: Animals and tissue preparation. […] Six aorta, six femoral arteries, and six mesenteric arteries were harvested from eighteen rats. The animals were acclimated to the testing facility for approximately one week prior to the start of the study. On the day of termination, each animal was first anesthetized with sodium pentobarbital (80 mg/kg, i.p.) and euthanized by overanesthesia with sodium pentobarbital ([…], i.p.). Either the aorta, common femoral artery, or mesenteric artery were excised quickly and placed in ice-cold physiological saline solution (PSS in mmole/L: 119 NaCl, 4.7 KCl, 25 NaHCO3, 1.17 KH2PO4, 1.17 MgSO4, 1.6 CaCl, 5.5 Dextrose, solution gassed by 95% O2/5% CO2). The artery was carefully cleaned from adjacent tissue with the aid of a stereo-dissection microscope. The branches on the artery were ligated and the artery was allowed to warm up to room temperature (22° C.) slowly in approximately 10-15 min. The artery was transferred to the chamber of isovolumic system and cannulated with connectors and secured with 8-0 suture twice to avoid any leakage. The artery was warmed up to 37° C. slowly (20-25 min) and equilibrated for 40 min at a transmural pressure of 15 mmHg before agonist and antagonist stimulation.
Isovolumic myography. […]

[2] = test system: carotid and femoral arteries; assay: isovolumic myograph, vasoactivity of arterial segments; set-up: species or system Wistar rats; details: concentration-dependent contraction, FIG. 2
Method: Six Wistar rats weighing 300-350 g were used in the study. The animals were anesthetized with sodium pentobarbital (60 mg/kg, ip). A heating pad was used to maintain the body temperature of the animal during anesthesia. The left carotid and common femoral arteries of the rat were exposed and cannulated for blood pressure measurements. This was done to measure the in vivo difference in blood pressure between carotid and femoral arteries. Several 1 cm segments of right carotid and femoral arteries were excised and immediately stored in 4° C. physiological saline solution (PSS).
The samples were then prepared to be tested in the exemplary isovolumic myograph according to the present disclosure as shown in FIG. 1. To prepare the samples, PSS was first contained in an organ bath with a controlled heating system and warmed to 37° C. […]
Vessel 3 and pressure transducer 5 are isolated from the pressure system when vessel 3 is pressurized and the two stopcocks 6 and 7 are closed to vessel 3. […] The changes of the pressure are recorded. […]
The dosage-dependent vasoconstriction in response to phenylephrine was recorded. The dosage- and endothelium-dependent vasodilatation in response to acetylcholine was also recorded in phenylephrine pre-constriction. The dosage-dependent and endothelium-independent vasodilatation in response to sodium nitroprusside (SNP) was recorded in phenylephrine pre-constriction. […]

## CNC[C@H](O)c1cccc(O)c1 [phenylephrine]
[1]
  increase in intraluminal pressure: 30 to 40 mmHg
[2]
  concentration at which the pressure in the vessel reached a maximum: 3 µmol/L
